Values quoted from earlier work in patent US20090317456A1, “USE OF ONCOLYTIC VIRUSES AND ANTIANGIOGENIC AGENTS IN THE TREATMENT OF CANCER” (priority 2006, published 2009).

Tests used:
[1] = system: VEGFR tyrosine kinases, including VEGFR-3; conditions: all known VEGFR tyrosine kinases
[2] = system: metastatic colorectal cancer; conditions: bevacizumab added to FOLFOX or FOLFIRI; prolonged from 12 months without

Row | Molecule | inhibition of VEGFR tyrosine kinases [1] | inhibition of PDGFR (PDGFR) | median survival [2] [months]
1 | Clc1ccc(Nc2nnc(Cc3ccncc3)c3ccccc23)cc1 [PTK 787/ZK 222584] | lower nanomolar range | nanomolar range | –
2 | bevacizumab: humanized anti-VEGF monoclonal antibody (Avastin, Genentech) | – | – | 20
